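In this assay, cells in 96-well plates receive the compound at five concentrations for 48 hours. Endpoints are linearly interpolated between the surrounding concentrations. Definition used: TGI = concentration required for complete inhibition of growth.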
What follows are compounds tested on HL-60(TB) leukemia (assay: inhibition of tumour cell growth, NCI panel, 48 h).
Work on COC(=O)C1CC2c3c(c4ccccc4n3C)CC(C1=O)N2C (stereo unspecified) yielded a TGI of 68.5 µM. Work on CC(C)c1ccccc1NC(=O)CCC(=O)NN yielded a TGI greater than 100 µM. Clc1ccc(OCc2nnc3n2N=C(c2ccccc2)CS3)cc1 was tested, and the TGI was 30.4 µM. Work on CC(=O)N(C(C)=O)c1c(N)n(C)c(=O)[nH]c1=O yielded a TGI greater than 100 µM.

These compounds were tested on EKVX NSCLC (assay: inhibition of tumour cell growth, NCI panel, 48 h).
COC(=O)C1CC2c3c(c4ccccc4n3C)CC(C1=O)N2C (stereo unspecified) showed a TGI greater than 100 µM. CC(C)c1ccccc1NC(=O)CCC(=O)NN was tested, and the TGI was greater than 100 µM. With NC(N)=N/N=C(/CCN1CCCC1)CC(c1ccccc1)c1c(O)c2ccccc2oc1=O (stereo unspecified) the TGI was greater than 100 µM. CC(=O)N(C(C)=O)c1c(N)n(C)c(=O)[nH]c1=O was tested, and the TGI was greater than 100 µM.

The compounds below were run on OVCAR-4 ovarian (assay: inhibition of tumour cell growth, NCI panel, 48 h).
COC(=O)C1CC2c3c(c4ccccc4n3C)CC(C1=O)N2C (stereo unspecified) was tested, and the TGI was greater than 100 µM. Work on NC(N)=N/N=C(/CCN1CCCC1)CC(c1ccccc1)c1c(O)c2ccccc2oc1=O (stereo unspecified) yielded a TGI greater than 100 µM. Compound Clc1ccc(OCc2nnc3n2N=C(c2ccccc2)CS3)cc1 has a TGI of 30.6 µM. CC(=O)N(C(C)=O)c1c(N)n(C)c(=O)[nH]c1=O gave a TGI greater than 100 µM.

What follows are compounds tested on SN12C renal (assay: inhibition of tumour cell growth, NCI panel, 48 h).
With COC(=O)C1CC2c3c(c4ccccc4n3C)CC(C1=O)N2C (stereo unspecified) the TGI was greater than 100 µM. With CC(C)c1ccccc1NC(=O)CCC(=O)NN the TGI was greater than 100 µM. Compound NC(N)=N/N=C(/CCN1CCCC1)CC(c1ccccc1)c1c(O)c2ccccc2oc1=O (stereo unspecified) has a TGI greater than 100 µM. In the case of Clc1ccc(OCc2nnc3n2N=C(c2ccccc2)CS3)cc1, the TGI is reported as 25.8 µM. Work on CC(=O)N(C(C)=O)c1c(N)n(C)c(=O)[nH]c1=O yielded a TGI greater than 100 µM.

Each compound was assayed on SK-OV-3 ovarian (assay: inhibition of tumour cell growth, NCI panel, 48 h).
In the case of COC(=O)C1CC2c3c(c4ccccc4n3C)CC(C1=O)N2C (stereo unspecified), the TGI is reported as greater than 100 µM. Work on CC(C)c1ccccc1NC(=O)CCC(=O)NN yielded a TGI greater than 100 µM. NC(N)=N/N=C(/CCN1CCCC1)CC(c1ccccc1)c1c(O)c2ccccc2oc1=O (stereo unspecified) gave a TGI greater than 100 µM. With Clc1ccc(OCc2nnc3n2N=C(c2ccccc2)CS3)cc1 the TGI was 44.7 µM.

Each compound was assayed on K-562 leukemia (assay: inhibition of tumour cell growth, NCI panel, 48 h).
COC(=O)C1CC2c3c(c4ccccc4n3C)CC(C1=O)N2C (stereo unspecified) gave a TGI greater than 100 µM. CC(C)c1ccccc1NC(=O)CCC(=O)NN was tested, and the TGI was greater than 100 µM. Work on NC(N)=N/N=C(/CCN1CCCC1)CC(c1ccccc1)c1c(O)c2ccccc2oc1=O (stereo unspecified) yielded a TGI greater than 100 µM. In the case of Clc1ccc(OCc2nnc3n2N=C(c2ccccc2)CS3)cc1, the TGI is reported as 42.8 µM. In the case of CC(=O)N(C(C)=O)c1c(N)n(C)c(=O)[nH]c1=O, the TGI is reported as greater than 100 µM.

These compounds were tested on HOP-92 NSCLC (assay: inhibition of tumour cell growth, NCI panel, 48 h).
COC(=O)C1CC2c3c(c4ccccc4n3C)CC(C1=O)N2C (stereo unspecified) gave a TGI greater than 100 µM. CC(C)c1ccccc1NC(=O)CCC(=O)NN showed a TGI greater than 100 µM. Work on NC(N)=N/N=C(/CCN1CCCC1)CC(c1ccccc1)c1c(O)c2ccccc2oc1=O (stereo unspecified) yielded a TGI greater than 100 µM. Clc1ccc(OCc2nnc3n2N=C(c2ccccc2)CS3)cc1 was tested, and the TGI was 36.7 µM. With CC(=O)N(C(C)=O)c1c(N)n(C)c(=O)[nH]c1=O the TGI was greater than 100 µM.

Each compound was assayed on COLO 205 colon (assay: inhibition of tumour cell growth, NCI panel, 48 h).
Compound COC(=O)C1CC2c3c(c4ccccc4n3C)CC(C1=O)N2C (stereo unspecified) has a TGI of 32.5 µM. NC(N)=N/N=C(/CCN1CCCC1)CC(c1ccccc1)c1c(O)c2ccccc2oc1=O (stereo unspecified) showed a TGI greater than 100 µM. With Clc1ccc(OCc2nnc3n2N=C(c2ccccc2)CS3)cc1 the TGI was 30.8 µM. CC(=O)N(C(C)=O)c1c(N)n(C)c(=O)[nH]c1=O gave a TGI greater than 100 µM.

What follows are compounds tested on UACC-62 melanoma (assay: inhibition of tumour cell growth, NCI panel, 48 h).
COC(=O)C1CC2c3c(c4ccccc4n3C)CC(C1=O)N2C (stereo unspecified) showed a TGI greater than 100 µM. CC(C)c1ccccc1NC(=O)CCC(=O)NN gave a TGI greater than 100 µM. NC(N)=N/N=C(/CCN1CCCC1)CC(c1ccccc1)c1c(O)c2ccccc2oc1=O (stereo unspecified) gave a TGI greater than 100 µM. For Clc1ccc(OCc2nnc3n2N=C(c2ccccc2)CS3)cc1, the TGI was 28.4 µM. With CC(=O)N(C(C)=O)c1c(N)n(C)c(=O)[nH]c1=O the TGI was greater than 100 µM.

What follows are compounds tested on HCT-15 colon (assay: inhibition of tumour cell growth, NCI panel, 48 h).
COC(=O)C1CC2c3c(c4ccccc4n3C)CC(C1=O)N2C (stereo unspecified) was tested, and the TGI was 50.7 µM. Compound CC(C)c1ccccc1NC(=O)CCC(=O)NN has a TGI greater than 100 µM. Clc1ccc(OCc2nnc3n2N=C(c2ccccc2)CS3)cc1 gave a TGI of 31 µM. With CC(=O)N(C(C)=O)c1c(N)n(C)c(=O)[nH]c1=O the TGI was greater than 100 µM.

Each compound was assayed on HT29 colon (assay: inhibition of tumour cell growth, NCI panel, 48 h).
COC(=O)C1CC2c3c(c4ccccc4n3C)CC(C1=O)N2C (stereo unspecified) gave a TGI greater than 100 µM. With NC(N)=N/N=C(/CCN1CCCC1)CC(c1ccccc1)c1c(O)c2ccccc2oc1=O (stereo unspecified) the TGI was greater than 100 µM. Work on Clc1ccc(OCc2nnc3n2N=C(c2ccccc2)CS3)cc1 yielded a TGI of 29.8 µM. Compound CC(=O)N(C(C)=O)c1c(N)n(C)c(=O)[nH]c1=O has a TGI greater than 100 µM.

Each compound was assayed on MALME-3M melanoma (assay: inhibition of tumour cell growth, NCI panel, 48 h).
With COC(=O)C1CC2c3c(c4ccccc4n3C)CC(C1=O)N2C (stereo unspecified) the TGI was greater than 100 µM. With CC(C)c1ccccc1NC(=O)CCC(=O)NN the TGI was greater than 100 µM. NC(N)=N/N=C(/CCN1CCCC1)CC(c1ccccc1)c1c(O)c2ccccc2oc1=O (stereo unspecified) gave a TGI greater than 100 µM. For Clc1ccc(OCc2nnc3n2N=C(c2ccccc2)CS3)cc1, the TGI was 34.5 µM. Compound CC(=O)N(C(C)=O)c1c(N)n(C)c(=O)[nH]c1=O has a TGI greater than 100 µM.

These compounds were tested on U251 CNS (assay: inhibition of tumour cell growth, NCI panel, 48 h).
Work on COC(=O)C1CC2c3c(c4ccccc4n3C)CC(C1=O)N2C (stereo unspecified) yielded a TGI greater than 100 µM. Compound CC(C)c1ccccc1NC(=O)CCC(=O)NN has a TGI greater than 100 µM. For Clc1ccc(OCc2nnc3n2N=C(c2ccccc2)CS3)cc1, the TGI was 31.9 µM.

Each compound was assayed on TK-10 renal (assay: inhibition of tumour cell growth, NCI panel, 48 h).
Work on COC(=O)C1CC2c3c(c4ccccc4n3C)CC(C1=O)N2C (stereo unspecified) yielded a TGI greater than 100 µM. CC(C)c1ccccc1NC(=O)CCC(=O)NN gave a TGI greater than 100 µM. NC(N)=N/N=C(/CCN1CCCC1)CC(c1ccccc1)c1c(O)c2ccccc2oc1=O (stereo unspecified) gave a TGI greater than 100 µM. Clc1ccc(OCc2nnc3n2N=C(c2ccccc2)CS3)cc1 showed a TGI of 53.4 µM.

Each compound was assayed on A549 NSCLC (assay: inhibition of tumour cell growth, NCI panel, 48 h).
For COC(=O)C1CC2c3c(c4ccccc4n3C)CC(C1=O)N2C (stereo unspecified), the TGI was greater than 100 µM.

Source: PubChem BioAssay (NCI)
